Assay results published in patent US9919941B2, “Multiple uses of amine salts for industrial water treatment” (AMSA, Inc., priority 2012, dated 2018).
Where two headings read alike, the source gives them in different places.

Tests used:
[1] = calcium carbonate scale inhibition (conductometric titration, supersaturation ratio Sr)
Protocol: To a 100 mL beaker were added 60 mL of HPLC-grade water and 3 mL of 0.1 M calcium chloride. An appropriate amount (0.5-4 mL) of an aqueous solution of the inhibitor compound of Formula (I) to be tested was then added. The solution was magnetically stirred at a constant speed for all experiments. The sample was then titrated with 0.1 M sodium carbonate. After addition of each 0.2 mL aliquot of sodium carbonate titrant, the solution was mixed for 1 min and then the conductivity of the solution measured.
As titrant is added the conductivity increases in a linear fashion. When the supersaturation point is reached, the conductivity decreases and precipitation begins. This is considered the endpoint of the titration. The resulting titration endpoint volumes are used to calculate a relative supersaturation ratio (Sr). This is the ratio of the supersaturation of calcium carbonate in the presence of the compound of Formula (I) being tested to the value of the supersaturation of water without inhibitor (distilled water plus 3 mL of 0.1 M calcium chloride). Thus, compounds with Sr>1 are displaying scale inhibition.
The scale inhibition performance of various compounds of Formula (I) and comparative compounds were compared at the same molar concentration. These compounds were tested at 60 μM concentration except where noted otherwise. Compound numbers are from Table 1.

[2] = system: sessile microbial population (biofilm on stainless steel washers); assay: time-kill biocidal efficacy, hybrid planktonic-sessile procedure: sessile population; type: cell-based, natural mixed aerobic microbial population; conditions: 10 ppm Compound B, others equimolar; for Sessile, 20-24 h, % of Control / Sessile, 48-54 h, % of Control / Sessile, 120 h, % of Control / Sessile CFU/, 20-24 h / Sessile CFU/, 48-54 h / Sessile CFU/, 120 h / Sessile CFU/, Total / Sessile, Total, % of Control / activity at 10 ppm: exposure 110 minutes; for Sessile CFU/, 20-24 h / Sessile CFU/, 48-54 h / Sessile CFU/, 120 h / Sessile CFU/, Total: per washer; for reduction in the total sessile population: 110 minutes
Protocol: An experiment was conducted to assess biocidal effectiveness of Compounds A and B and their respective Compounds 13 and 1 anion analogs. Time-kill tests were conducted using a hybrid planktonic-sessile procedure which allowed assessment of biocidal effectiveness against both planktonic and sessile microbial populations. A natural mixed aerobic microbial population in samples collected from an operating cooling tower was used as inoculum for the test. Biocide test concentration for Compound B was 10 ppm. All other products were tested at the equivalent molar concentration. Biocide exposure was 110 minutes. The following procedure was used which generally followed the biocidal testing method of Walter, R. W. and Cooke, L. […] A New Multifunctional Biocide Which Enhances Corrosion Inhibition,” NACE Paper 410, 1997. A water sample was collected from a cooling tower that contained a natural mixed population of microorganisms that grew at different rates when plated on Petrifilm. The populations of cells that grew on Petrifilm in 20-24 hours, 48-54 hours and at 120 hours were treated as separate populations. […] The washers were allowed seven days to develop a biofilm on their surface. Prior to chemical treatment, 10 mL aliquots of the CTW were removed from the beaker and placed into individual exposure test tubes along with a single washer. Test compounds were then added to the individual tubes at equimolar concentrations. All exposure tests including untreated controls were conducted in triplicate (i.e., three washers in separate exposure tubes). After addition of the test compound, the tube was briefly mixed by mild vortexing and again occasionally throughout the exposure time. Washer sonication to release organisms not released by the chemical treatment: […], the washer was removed from the tube, dipped 10 times in Letheen broth, then placed into a 9 mL tube of sterile Butterfields buffer, and sonicated for 8 minutes. Determination of cell population removed from washers by sonication: After the tube with washer was sonicated, a 1 mL aliquot was plated onto petrifilm and a serial dilution in Butterfields Buffer was performed with each dilution being plated to petrifilm. Determination of colony forming units (CFU) at different incubation times: After plating the various solutions on Petrifilm, the films were incubated at 36° C. for the first 24 hours. At 20 hours the […] read and CFU were recorded. This population was defined as a fast growing population. The […] then incubated for additional time either at 36° C. or room temperature and read at 54 hours. This second population is in addition to the fast growth rate population and was defined as moderate growth rate organisms. Incubation was continued and the […] again after 120 hours. This third population was also treated as separate from the fast and moderate growth rate populations and is referred to as the slow growth rate population. As noted above, each compound was evaluated in triplicate with three separate washers and the results were averaged. Average CFU/mL values were used to calculate total planktonic test population (CFU/10 mL) and total sessile test population (CFU/washer) in each test system.

SMILES	Sr (supersaturation ratio) ([1]; 60 μM)	Sessile, 20-24 h, % of Control ([2]; 20-24 h incubation) [%]	Sessile, 48-54 h, % of Control ([2]; 48-54 h incubation) [%]	Sessile, 120 h, % of Control ([2]; 120 h incubation) [%]	Sessile CFU/, 20-24 h ([2]; 20-24 h incubation) [CFU/]	Sessile CFU/, 48-54 h ([2]; 48-54 h incubation)	Sessile CFU/, 120 h ([2]; 120 h incubation)	Sessile CFU/, Total ([2]; total population)	Sessile, Total, % of Control ([2]; total population) [%]	Sr (supersaturation ratio) ([1]; 64 μM)	reduction in the total sessile population [2] [%]	activity at 10 ppm ([2]; 20-24 h incubation, read-out: Sessile, 20-24 h, % of Control) [%]	activity at 10 ppm ([2]; 48-54 h incubation, read-out: Sessile, 48-54 h, % of Control) [%]	activity at 10 ppm ([2]; 110 min, total population, read-out: Sessile, Total, % of Control) [%]	activity at 10 ppm ([2]; 120 h incubation, read-out: Sessile, 120 h, % of Control) [%]	scale inhibition (in words) ([1]; about 60 μM)
CCCCCCCCCCOCCCN.O=C(O)CC(O)(CC(=O)O)C(=O)O [Compound 1, 2-hydroxypropane-1,2,3-tricarboxylic acid salt of aminopropyloxydecane]	1.4	104.9	4.4	38.7	234	36,000 CFU/	265,000 CFU/	301,000 CFU/	19.9							
CCCCCCCCCCSCCN.Cl [Compound A, 2-(decylthio)ethanamine hydrochloride]	1.0				405	360 CFU/	60,000 CFU/	60,800 CFU/		1.2	96	182	0.04	4	8.8	
CC(=O)O.CCCCCCCCCCOCCCN [Compound B, ethanoic acid salt of aminopropyloxydecane]	1.0	92.8	6.0	37.7	207	49,200 CFU/	258,000 CFU/	307,000 CFU/	20.3		80					no scale inhibition
